# Test results taken from US8507674B2, “Quorum sensing inhibitor” (The University of Tokyo, priority 2007, dated 2013).
# Columns and labels:
# [1] = test system: Burkholderia glumae; experiment: Test Example 9: amount of toxoflavin produced in culture solution, with comparative compound; type: cell-based; details: 0, 20, 40, 60, 80 or 100 μM, shake culturing 20 hours, FIG. 6
# Procedure: Burkholderia glumae was inoculated into an LB culture medium (produced by BD (Difco LB Broth: containing tryptone (10.0 g), yeast extract (5.0 g), and sodium chloride (10.0 g)), and cultured at 37° C. overnight. The thus-obtained culture solution was subjected to bacterial collection using a centrifuge, and washed with an LB culture medium twice using a fresh LB culture medium each time. To the bacterial cell a fresh LB culture medium was added, and then Compound (1) produced in Production Example 1 was added thereto in such a manner that its final concentration became a predetermined value (i.e., 0, 20, 40, 60, 80 or 100 μM), followed by shake culturing for 20 hours. The amount of toxoflavin produced by the bacterial cell in the culture solution was obtained by the following procedure.
# Each culture solution was filtered by a 0.22-μm membrane filter, and 1 mL of the filtrate was isolated. One mL of chloroform was added to the filtrate, followed by extraction. The thus-obtained chloroform layer was concentrated under reduced pressure, and an 80% (V/V) an aqueous methanol solution was added to and dissolved in the residue. The absorbance (at 260 nm) of the solution was measured, and the toxin doses were calculated from the calibration curve, which was obtained using chemically synthesized standard toxin. […]
# [2] = test system: Burkholderia glumae; experiment: Test Example 3: number of microorganisms versus culturing time and concentration; type: cell-based; details: 80 μM or 100 μM, 20 to 40 hours culturing, FIG. 2
# Procedure: Burkholderia glumae was inoculated into an LB culture medium, and cultured at 37° C. overnight. The thus-obtained culture solution was subjected to bacterial collection using a centrifuge, washed with an LB culture medium twice using a fresh LB culture medium each time. To the bacterial cell a fresh LB culture medium was added to prepare a culture suspension of about 3.0×10^5 cfu/mL. Thereafter, Compound (1) produced in Production Example 1 was added to the culture suspension in such a manner that its final concentration became a predetermined value (i.e., 0 μM, 80 μM, or 100 μM), followed by shake culturing for 40 hours. The number of microorganisms in the culture solution after a predetermined time (i.e., 20, 24, 28, 32, 36 and 40 hours) was obtained by the following procedure. Specifically, a portion of the culture solution was removed and diluted 1,000-fold, and then seeded to an LB culture medium agar plate. The number of colonies was counted to obtain the number of microorganisms.
smiles,measurement,setting,value
"CCCc1cc(=O)n2cccc(O)c2n1 [Compound (1), 2-n-propyl-9-hydroxy-4H-pyrid[1,2-a]pyrimidin-4-one]",toxin doses produced by bacteria (toxoflavin),[1],remarkably decreased
same,control effect against Burkholderia glumae (number of microorganisms),[2],excellent control effect
